Data taken from patent US12310364B2, “Safened compositions comprising pyridine carboxylate herbicides and cloquintocet” (Corteva Agriscience LLC, priority 2018, dated 2025).

Key:
Type in all cases: in vivo
[1] = test system: Avena sativa (common oat), AVESA; assay: Greenhouse postemergence safening trial, visual injury on common oat; settings: safener alone 40 g/ha
Protocol: (§1) Greenhouse Trial Methodology-Evaluation of Postemergence Herbicidal […] in Crops […] When required to ensure good germination and healthy plants, a fungicide treatment and/or other chemical or physical treatment was applied. The plants were grown for 7-36 days (d) in a greenhouse with an approximate 14-hour (h) photoperiod which was maintained at about 23° C. during the day and 22° C. during the night. Nutrients and water were added on a regular basis and supplemental lighting was provided with overhead metal halide 1000-Watt lamps as necessary. The plants were employed for testing when they reached the second or third true leaf stage. Emulsifiable concentrates of each of each pyridine carboxylate herbicide (Compound A or Compound B) were prepared at 100 grams acid equivalent per liter (g ae/L). […] The concentrated stock solutions were further diluted with an aqueous mixture of 1.25% […] or MSO® Concentrate with LECI-TECH® to obtain stock solutions at reduced application rates for each herbicide. Spray solutions of the herbicide combinations (Compound A or Compound B plus safener) were prepared by adding weighed amounts or aliquots of the safener to the stock solutions of Compound A or Compound B to form 12-mL spray solutions in two-way combinations. […] Control plants were sprayed in the same manner with the solvent blank. All herbicide (component a) application rates are given as “g ae/ha” and all safener (component b) application rates are given as “g ai/ha.” The treated plants and control plants were placed in a greenhouse as described above and watered by sub-irrigation to prevent wash-off of the test compounds.

[2] = test system: Triticum aestivum (durum wheat), TRZDU; assay: Greenhouse postemergence safening trial, visual injury on durum wheat; settings: safener alone 40 g/ha
Protocol: as §1

[3] = test system: Brassica napus (winter rape), BRSNW; assay: Greenhouse postemergence trial, visual injury on winter rape
Protocol: as §1

[4] = test system: Hordeum vulgare (winter barley), HORVW; assay: Greenhouse postemergence safening trial, visual injury on winter barley
Protocol: as §1

[5] = test system: Matricaria chamomilla (wild chamomile), MATCH; assay: Greenhouse postemergence trial, visual injury on wild chamomile
Protocol: as §1

[6] = test system: Triticum aestivum (spring wheat), TRZAS; assay: Greenhouse postemergence safening trial, visual injury on spring wheat
Protocol: as §1

[7] = test system: Hordeum vulgare (spring barley), HORVS; assay: Greenhouse postemergence safening trial, visual injury on spring barley
Protocol: as §1

[8] = test system: Salsola kali (Russian thistle), SASKR; assay: Greenhouse postemergence trial, visual injury on Russian thistle
Protocol: as §1

[9] = test system: Triticum aestivum (winter wheat), TRZAW; assay: Greenhouse postemergence safening trial, visual injury on winter wheat
Protocol: as §1

[10] = test system: Matricaria inodora (false chamomile), MATIN; assay: Greenhouse postemergence trial, visual injury on false chamomile
Source text: (§2) Greenhouse Trial Methodology—Evaluation of Postemergence Herbicidal Safening in Crops
(§3) Seeds of the desired test plant species were planted in a 90:10% v/v (volume/volume) mixture of PRO-MIX® BX (Premier Tech Horticulture, Quakertown, PA, USA) and PROFILE® GREENS GRADE™ (Profile Products LLC, Buffalo Grove, IL, USA) planting mixture, which typically has a pH of 5.2 to 6.2 and an organic matter content of at least 50 percent, in plastic pots with a surface area of 103.2 square centimeters (cm^2). When required to ensure good germination and healthy plants, a fungicide treatment and/or other chemical or physical treatment was applied. The plants were grown for 7-36 days (d) in a greenhouse with an approximate 14-hour (h) photoperiod which was maintained at about 23° C. during the day and 22° C. during the night. Nutrients and water were added on a regular basis and supplemental lighting was provided with overhead metal halide 1000-Watt lamps as necessary. The plants were employed for testing when they reached the second or third true leaf stage.
(§4) Emulsifiable concentrates of each of each pyridine carboxylate herbicide (Compound A or Compound B) were prepared at 100 grams acid equivalent per liter (g ae/L). An aliquot of each emulsifiable concentrate was placed in a 25 mL glass vial and diluted with an aqueous mixture of 1.25% (v/v) ACTIROB® B esterified rapeseed oil (Bayer Crop Science, Research Triangle Park, NC, USA) or MSO® Concentrate with LECI-TECH® methylated soybean oil (Loveland Products, Loveland, CO, USA) to obtain concentrated stock solutions at the highest application rate for each herbicide, based upon a 12 milliliter (mL) application volume at a rate of 187 liters per hectare (L/ha). The concentrated stock solutions were further diluted with an aqueous mixture of 1.25% v/v ACTIROB® B or MSO® Concentrate with LECI-TECH® to obtain stock solutions at reduced application rates for each herbicide. Spray solutions of the herbicide combinations (Compound A or Compound B plus safener) were prepared by adding weighed amounts or aliquots of the safener to the stock solutions of Compound A or Compound B to form 12-mL spray solutions in two-way combinations.
(§5) The spray solutions were applied to the plant material with an overhead Mandel track sprayer equipped with 8002E nozzles calibrated to deliver 187 L/ha over an application area of 0.503 square meters (m^2) at a spray height of 18 inches (43 centimeters (cm)) above the average plant canopy. Control plants were sprayed in the same manner with the solvent blank. All herbicide (component a) application rates are given as “g ae/ha” and all safener (component b) application rates are given as “g ai/ha.”
(§6) The treated plants and control plants were placed in a greenhouse as described above and watered by sub-irrigation to prevent wash-off of the test compounds. After 20-22 d, the condition of the test plants as compared with that of the control plants was determined visually and scored on a scale of 0 to 100 percent where 0 corresponds to no injury and 100 corresponds to complete kill.

maize (ZEAMX) = assay: Greenhouse postemergence safening trial, visual injury on maize; settings: Table 18
Source text: as §2, §3, §4, §5, §6

[11] = test system: Sinapis arvensis (wild mustard), SINAR; assay: Greenhouse postemergence trial, visual injury on wild mustard
Source text: as §2, §3, §4, §5, §6

[12] = test system: Anthemis arvensis (field chamomile), ANTAR; assay: Greenhouse postemergence trial, visual injury on field chamomile
Source text: as §2, §3, §4, §5, §6

[13] = test system: nutsedge (CYPES, Cyperus esculentus); assay: Greenhouse postemergence trial, visual injury on nutsedge; settings: Table 18
Source text: as §2, §3, §4, §5, §6

[14] = test system: pigweed (AMARE, Amaranthus retroflexus); assay: Greenhouse postemergence trial, visual injury on pigweed; settings: Table 18
Source text: as §2, §3, §4, §5, §6

[15] = test system: common sunflower (HELAN, Helianthus annuus); assay: Greenhouse postemergence trial, visual injury on common sunflower; settings: Table 18
Source text: as §2, §3, §4, §5, §6

CNC.O=C(O)COc1ccc(Cl)c2cccnc12 [CQC-DMA, cloquintocet-dimethylammonium salt]
0%: % visual injury, Ob [1] | % visual injury, Ob [2] | % visual injury, Ob ([3]; safener alone 10 g/ha) | % visual injury, Ob ([3]; safener alone 20 g/ha) | % visual injury, Ob ([3]; safener alone 40 g/ha) | % visual injury, Ob ([4]; safener alone 40 g/ha) | % visual injury, Ob ([5]; safener alone 10 g/ha) | % visual injury, Ob ([5]; safener alone 20 g/ha) | % visual injury, Ob ([5]; safener alone 40 g/ha) | % visual injury, Ob ([6]; safener alone 10 g/ha) | % visual injury, Ob ([6]; safener alone 20 g/ha) | % visual injury, Ob ([6]; safener alone 40 g/ha) | % visual injury, Ob ([7]; safener alone 10 g/ha) | % visual injury, Ob ([7]; safener alone 20 g/ha) | % visual injury, Ob ([7]; safener alone 40 g/ha) | % visual injury, Ob ([8]; safener alone 10 g/ha) | % visual injury, Ob ([8]; safener alone 20 g/ha) | % visual injury, Ob ([8]; safener alone 40 g/ha) | % visual injury Δ ([9]; safener alone 40 g/ha) | % visual injury, Ob ([9]; safener alone 40 g/ha)

O=C(O)COc1ccc(Cl)c2cccnc12 [CQC-a, cloquintocet-acid]
0%: % visual injury, Ob ([10]; safener alone 10 g/ha) | % visual injury, Ob ([10]; safener alone 20 g/ha) | % visual injury, Ob ([10]; safener alone 40 g/ha) | % visual injury, Ob ([10]; safener alone 80 g/ha) | % visual injury, Ob (maize (ZEAMX); CQC-a 20 g/ha alone) | % visual injury, Ob (maize (ZEAMX); CQC-a 40 g/ha alone) | % visual injury, Ob (maize (ZEAMX); CQC-a 80 g/ha alone) | % visual injury, Ob (maize (ZEAMX); CQC-a 120 g/ha alone) | % visual injury, Ob [1] | % visual injury, Ob [2] | % visual injury, Ob ([3]; safener alone 5 g/ha) | % visual injury, Ob ([3]; safener alone 10 g/ha) | % visual injury, Ob ([3]; safener alone 20 g/ha) | % visual injury, Ob ([3]; safener alone 40 g/ha) | % visual injury, Ob ([11]; safener alone 10 g/ha) | % visual injury, Ob ([11]; safener alone 20 g/ha) | % visual injury, Ob ([11]; safener alone 40 g/ha) | % visual injury, Ob ([11]; safener alone 80 g/ha) | % visual injury, Ob ([12]; safener alone 5 g/ha) | % visual injury, Ob ([12]; safener alone 10 g/ha) | % visual injury, Ob ([12]; safener alone 20 g/ha) | % visual injury, Ob ([12]; safener alone 40 g/ha) | % visual injury, Ob ([13]; CQC-a 20 g/ha alone) | % visual injury, Ob ([13]; CQC-a 40 g/ha alone) | % visual injury, Ob ([13]; CQC-a 80 g/ha alone) | % visual injury, Ob ([13]; CQC-a 120 g/ha alone) | % visual injury, Ob ([4]; safener alone 5 g/ha) | % visual injury, Ob ([4]; safener alone 10 g/ha) | % visual injury, Ob ([4]; safener alone 20 g/ha) | % visual injury, Ob ([4]; safener alone 40 g/ha) | % visual injury, Ob ([4]; safener alone 80 g/ha) | % visual injury, Ob ([14]; CQC-a 20 g/ha alone) | % visual injury, Ob ([14]; CQC-a 40 g/ha alone) | % visual injury, Ob ([14]; CQC-a 80 g/ha alone) | % visual injury, Ob ([14]; CQC-a 120 g/ha alone) | % visual injury, Ob ([15]; CQC-a 20 g/ha alone) | % visual injury, Ob ([15]; CQC-a 40 g/ha alone) | % visual injury, Ob ([15]; CQC-a 80 g/ha alone) | % visual injury, Ob ([15]; CQC-a 120 g/ha alone) | % visual injury, Ob ([6]; safener alone 5 g/ha) | % visual injury, Ob ([6]; safener alone 10 g/ha) | % visual injury, Ob ([6]; safener alone 20 g/ha) | % visual injury, Ob ([6]; safener alone 40 g/ha) | % visual injury, Ob ([6]; safener alone 80 g/ha) | % visual injury, Ob ([6]; safener alone 120 g/ha) | % visual injury, Ob ([7]; safener alone 5 g/ha) | % visual injury, Ob ([7]; safener alone 10 g/ha) | % visual injury, Ob ([7]; safener alone 20 g/ha) | % visual injury, Ob ([7]; safener alone 40 g/ha) | % visual injury, Ob ([7]; safener alone 80 g/ha) | % visual injury, Ob ([7]; safener alone 120 g/ha) | % visual injury, Ob ([9]; safener alone 5 g/ha) | % visual injury, Ob ([9]; safener alone 10 g/ha) | % visual injury, Ob ([9]; safener alone 20 g/ha) | % visual injury Δ ([9]; safener alone 40 g/ha) | % visual injury, Ob ([9]; safener alone 40 g/ha) | % visual injury, Ob ([9]; safener alone 80 g/ha) | % visual injury, Ob ([9]; safener alone 120 g/ha)

CCN(CC)CC.O=C(O)COc1ccc(Cl)c2cccnc12 [CQC-TEA, cloquintocet-triethylamine salt]
0%: % visual injury, Ob [1] | % visual injury, Ob [2] | % visual injury, Ob ([3]; safener alone 10 g/ha) | % visual injury, Ob ([3]; safener alone 20 g/ha) | % visual injury, Ob ([3]; safener alone 40 g/ha) | % visual injury Δ ([4]; safener alone 40 g/ha) | % visual injury, Ob ([4]; safener alone 40 g/ha) | % visual injury, Ob ([5]; safener alone 10 g/ha) | % visual injury, Ob ([5]; safener alone 20 g/ha) | % visual injury, Ob ([5]; safener alone 40 g/ha) | % visual injury, Ob ([6]; safener alone 10 g/ha) | % visual injury, Ob ([6]; safener alone 20 g/ha) | % visual injury, Ob ([6]; safener alone 40 g/ha) | % visual injury, Ob ([7]; safener alone 10 g/ha) | % visual injury, Ob ([7]; safener alone 20 g/ha) | % visual injury, Ob ([7]; safener alone 40 g/ha) | % visual injury, Ob ([8]; safener alone 10 g/ha) | % visual injury, Ob ([8]; safener alone 20 g/ha) | % visual injury, Ob ([8]; safener alone 40 g/ha) | % visual injury, Ob ([9]; safener alone 40 g/ha)
